Measured values as given in patent US12521439B2, “Methods and materials for modulating Nrf2 pathway” (The General Hospital Corporation, priority 2019, dated 2026).
“Also recorded” adds a separate entry of the source. Where a name gives a salt, the structure may show the parent alone. Values belong to the molecule of their own block, whether it stands above or below them.

Tests used:
[1] = Solubility in aqueous media; format: physicochemical
[2] = test system: U87 glioma cells; test: Cell viability (CellTiter-Glo), U87; format: cell-based, human; conditions: for U87 cell viability: same doses as ARE test, FIG. 12D
Protocol: Cell culture: MDA-MB-231 and U87 (U87-MG) cells were obtained from the American Type Culture Collection (ATCC). 293T human embryonic kidney fibroblasts were provided by Dr. Xandra Breakefield (Massachusetts General Hospital). All three cell lines were grown in Dulbecco's modified Eagle medium supplemented with 10% fetal bovine serum (Gemini Bio-products), 100 U penicillin, and 0.1 mg/mL streptomycin (Sigma). All cells were maintained at 37° C. in a humidified 5% CO2 incubator. GSCs were obtained from tumor tissues of GBM patients following surgical resection, under approval from the corresponding Institutional Review Board. These cells have been previously characterized (ref. 37-39) and were maintained in culture as neurospheres in Neurobasal medium (Gibco) supplemented with heparin (2 μg/mL; Sigma) and recombinant EGF (20 ng/mL) and bFGF-2 (10 ng/mL; Peprotech). Human Astrocytes were obtained from ScienCell and cultured in Astrocytes Medium (ScienCell)
(§1) Cell viability: Cells were plated in 96-well plates and treated with the corresponding compounds. Cell viability was measured by adding 25 μl/well of CellTiter-Glo (Promega) followed by 10 minutes incubation and transfer to a white 96-well plate. Bioluminescence was quantified using Synergy HTX multimode reader (Biotek).

[3] = test system: ARE (Nrf2 pathway); test: ARE-Gluc luciferase reporter (normalized to SV40-Vluc); format: cell-based, human; conditions: for ARE activity: U87, CINN 100, FUM 50 μM, SULF 5 μM, FIG. 12C
From the text: DNA expression constructs: ARE reporter was designed and generated based on our previously published reporter for monitoring of the transcription factor Nuclear Factor Kappa B (NFkB). NFkB TRE elements were removed and replaced with four copies of the ARE enhancer sequence. This reporter consists of a CSCW lentivirus vector in which we have introduced two copies of the 1.2 kb chicken beta-globin (HS4) insulator elements, a TATA box acting as a minimal promoter upstream of the secreted Gaussia luciferase (Gluc). pcDNA3-HA2-Keap1 (Addgene plasmid #21556) and pcDNA3-HA2-Keap1 delta BTB (Addgene plasmid #21593) were a gift from Yue Xiong^2. pHAGE DN Cullin 3 (DN-CUL3) was a gift from Stephen Elledge (Addgene plasmid #41913). Constructs expressing constitutively active Gluc, Firefly luciferase (Fluc) and Vargula luciferase (Vluc) were previously describe. MISSION shRNA Bacterial Glycerol Stocks for Keap1 as well as a non-target shRNA were obtained from Sigma. Transfection of plasmid DNA was performed using Lipofectamine 2000 (Invitrogen) as per manufacturer's guidelines. Lentivirus packaging and titration was performed in 293T cells by the MGH viral vector core facility following standard protocols. Keap1 mutant C151S plasmid was kindly provided by Dr. Wooyoung Hur.
Luciferase assay: Coelenterazine (20 μM; Nanolight), The Gluc substrate was added to a 25 μL aliquot of conditioned medium and photon counts were measured using a luminometer. Similarly, the secreted Vluc activity was measured by adding its substrate vargulin (5 ng/mL; Nanolight). Cells stably expressing Gluc under the ARE enhancer sequence and Vluc under the constitutively active SV40 minimal promoter were used to determine the ARE reporter activity. The normalized Gluc/Vluc ratio was used as a marker for ARE activation.

[4] = molecular target: T1, BRD4 (Homo sapiens, UniProt O60885); test: BRD4 degradation in patient-derived breast cancer cells; format: cell-based; design: endogenous in cells; host or cells: patient-derived glioma cells; patient-derived breast cancer cells; conditions: FIG. 18
Protocol: (§2) Immunoblotting and Immunoprecipitation analysis: Antibodies against PDI, GAPDH, HA-tag, Ubiquitin, Keap1 and beta-actin (Cell Signaling) as well as secondary Horseradish peroxidase (HRP) conjugated antibodies: sheep anti-mouse IgG-HRP and donkey antirabbit IgG-HRP (Amersham Pharmacia Biotech) were used in this study. For protein expression analysis, cells were lysed in RIPA buffer (150 mM NaCl, 50 mM TRIS, pH 8.0, 1% NP-40, 0.5% deoxycholate, 0.1% SDS) supplemented with 1× protease inhibitors cocktail (Roche). Proteins were quantified using a Bradford protein determination assay (Bio-Rad) followed by electrophoresis in 10% NuPAGE Bis-Tris gels (Life Technologies) and transfer to nitrocellulose membranes (Bio-Rad). Membranes were incubated overnight with antibodies in 1-5% non-fat milk powder in PBS/0.5% TWEEN. Proteins were detected with SuperSignal West Pico Chemiluminescent Substrate (Pierce). For immunoprecipitation assays, cells were lysed in RIPA buffer supplemented with protease inhibitors and 2 mM N-ethylmaleimide. Cell lysates were pre-cleared with protein A agarose beads (Cell Signaling) and incubated with anti-HA antibody with gentle rocking overnight at 4° C. followed by incubation with protein A agarose beads and subsequent washing and elution steps. Electrophoresis, transfer and immunoblot analysis was performed as described above.

[5] = molecular target: T1, BRD4; test: OBT-JQ1 PROTAC mechanism (proteasome block, Keap1/CUL3 knockdown); format: cell-based; design: endogenous in cells
Protocol: as §2

[6] = molecular target: T1, BRD4; test: BRD4 degradation in breast cancer cells; format: cell-based; design: endogenous in cells; conditions: FIG. 16
Protocol: as §2

[7] = molecular target: T1, BRD4; test: BRD4 degradation in patient-derived glioma cells; format: cell-based; design: endogenous in cells; host or cells: patient-derived glioma cells; patient-derived breast cancer cells; conditions: FIG. 17
Protocol: as §2

[8] = test system: cancer cells; test: Cancer cell death with OBT, JQ1, OBT-JQ1; format: cell-based; conditions: FIG. 23
Protocol: as §1

[9] = molecular target: T2, BRD4 (Mus musculus, UniProt Q9ESU6); test: BRD4 degradation in mouse glioma model in vivo (Western blotting); design: species or system mice; conditions: CT2A glioma; intratumoral, intravenous and intranasal routes; 24 hrs after last injection
T2 construct: CT2A glioma cells expressing mCherry fluorescent protein were implanted in the brain of mice; from tissue; host or cells: CT2A glioma tumour removed from mouse brain
Protocol: CT2A glioma cells expressing mCherry fluorescent protein were implanted in the brain of mice and 2 weeks later, once tumor reached a significant size, mice were injected with 0.7 mg/kg body weight of OBT-JQ1 using different injection routes (1) direct intratumoral injection (single injection), intravenously (once/day over 3 days) and intranasally (once/day over 3 days, an injection route that typically bypasses the blood-brain barrier). 24 hrs after the last injection, brains were removed and the tumor was lysed and analyzed by Western blotting for BRD4 and mCherry and actin loading controls.

[10] = molecular target: T1, BRD4; test: BRD4 degradation in glioma cells; format: cell-based; design: endogenous in cells; conditions: FIG. 15
Protocol: as §2

Structure (SMILES): COC(=O)[C@]12CCC(C)(C)C[C@H]1[C@H]1C(=O)C=C3[C@@]4(C)C=C(C#N)C(=O)C(C)(C)[C@@H]4CC[C@@]3(C)[C@]1(C)CC2 [CDDO-Me, 2-cyano-3,12-dioxoolean-1,9-dien-28-oic acid-methyl ester]
cell viability ([2]; higher doses, U87 cells, FIG. 12B): marked decrease | ARE-Gluc reporter activity ([3]; U87 and MDA-MB-231 cells, FIG. 12A): increased reporter activity

Structure (SMILES): COC1=CC(=O)C(OCC(=O)NCCCOCCOCCOCCCNC(=O)CC2N=C(c3ccc(Cl)cc3)c3c(sc(C)c3C)-n3c(C)nnc32)=C/C1=C/C=C/c1ccccc1 (stereo not drawn) [OBT-JQ1, 2-(4-(4-chlorophenyl)-2,3,9-trimethyl-6H-thieno[3,2-f][1,2,4]triazolo[4,3-a][1,4]diazepin-6-yl)-N-(1-(((Z)-4-methoxy-6-oxo-3-((E)-3-phenylallylidene)cyclohexa-1,4-dien-1-yl)oxy)-2-oxo-7,10,13-trioxa-3-azahexadecan-16-yl)acetamide]
BRD4 degradation [4]: promotes targeted degradation of BRD4 | effect of OBT-JQ1 when proteasome is blocked ([5]; FIG. 20): reverses the effect | PROTAC activity in Keap1 and CuL3 knockdown ([5]; FIG. 21): retains PROTAC activity | BRD4 degradation [6]: promotes targeted degradation of BRD4 | BRD4 degradation [7]: promotes targeted degradation of BRD4 | induced cell death in presence of antioxidant NAC [8]: not protected | BRD4 degradation in brain tumors [9]: induces BRD4 degradation; also recorded: efficient BRD4 degradation | BRD4 degradation [10]: promotes targeted degradation of BRD4

Structure (SMILES): O=CC=Cc1ccccc1 [cinnamaldehyde]
U87 cell viability [2]: moderate decrease | ARE activity [3]: increased ARE activity

Structure (SMILES): CCOC(=O)/C=C/C(=O)OCC [diethyl fumarate]
U87 cell viability [2]: moderate decrease | ARE activity [3]: increased ARE activity

Structure (SMILES): C[S+]([O-])CCCCN=C=S (stereo not drawn) [sulforaphane]
U87 cell viability [2]: moderate decrease | ARE activity [3]: increased ARE activity

More lines, now with the values ahead:

solubility compared to OBT [1]: overcome the limited solubility of OBT
Structure (SMILES): COc1cc(O)c(O)cc1C(/C=C/c1ccccc1)SCCO (stereo not drawn) [AF20a, (E)-4-(1-((2-hydroxyethyl)thio)-3-phenylallyl)-5-methoxybenzene-1,2-diol]

solubility compared to OBT [1]: overcome the limited solubility of OBT
Structure (SMILES): COc1cc(O)c(O)cc1/C=C/C(SCCO)c1ccccc1 (stereo not drawn) [AF20b, (E)-4-(3-((2-hydroxyethyl)thio)-3-phenylprop-1-en-1-yl)-5-methoxybenzene-1,2-diol]
